Measured values: patent publication US20210298305A1, “USE OF A DIFLUORO-(2-HYDROXYPROPYL)PYRIDINE COMPOUND AS A FUNGICIDE FOR CONTROL OF PHYTOPATHOGENIC FUNGI OF WHEAT” (Dow AgroSciences LLC, priority 2016, published 2021)

Experiments:
[1] = test system: Puccinia recondita (PUCCRT); experiment: Field assessment of brown rust in spring wheat (curative tests); assay type: in vivo; conditions: for Test A % Control (based on AUDPC): early curative; for Test B % Control (based on AUDPC): late curative
[2] = test system: Parastagonospora nodorum (LEPTNO); experiment: Field assessment of glume blotch in spring wheat (protectant and curative); assay type: in vivo; conditions: for 2 DC percent control based on AUDPC: 2 Day curative; for 3 DP percent control based on AUDPC: 3 Day protectant
Description: A fungicidal treatment containing Compound I, sprayed alone in an EC formulation […] and tank mixed with an adjuvant (Agnique BP-420, 50% w/w at 0.3% v/v), was applied at B37-39 growth stage of spring wheat ([…] variety) for protectant tests at rates of 25, 50, 100 and 150 g ai/ha. After three days, the wheat plants were artificially inoculated with Parastagonospora nodorum at B39 growth stage of wheat. Compound I was then applied two days later (same rates and formulations) to the plants at B39-41 growth stage of wheat (2 day curative test).

[3] = test system: mixture of Fusarium graminearum and Fusarium culmorum isolates; assay type: in vivo; conditions: 100 g ai/ha, with Agnique BP-420
[4] = test system: Blumeria graminis f. sp. tritici (ERYSGT); experiment: Field assessment of powdery mildew in Durum wheat, three trials; assay type: in vivo
[5] = test system: Puccinia striiformis (PUCCST); experiment: Field assessment of yellow (stripe) rust in winter wheat, three curative trials; conditions: tank mix with Trycol 5941
Description: A fungicidal treatment containing Compound I was assessed against yellow rust of wheat (PUCCST) in three separate field trials. In each trial, all Compound I treatments were applied in a tank mix with Trycol 5941 (50% w/w) at 0.2% v/v as an adjuvant. […] The treatment was part of an experimental trial designed as a randomized complete block with four replications and a plot of approximately 1×2 m. Treatments were applied at water volume of 200 L/ha, using a backpack plot sprayer (BKPCKAIR, 1 m band width, FLATFAN F110-03 Lurmark nozzle) and pressurized at 180 kPa. Disease severity (% visual infection) was assessed 4 times on leaf 1 (L1, flag leaf, 33-47 DAA) and 5 times on leaf 2 (L2, 27-54 DAA).
The treatment was part of an experimental trial designed as a randomized complete block with four replications and a plot of approximately 2×3 m. Treatments were applied at water volume of 200 L/ha, using a backpack precision plot sprayer (BKCKENG, 2 m band width, FFA110-015 Hardi nozzle) and pressurized at 200 kPa. Disease severity (% visual infection) was assessed following application A one time on leaf 2 (23 DAA). Following application B, disease severity was assessed 4 times on leaf 1 (11-45 DAA) and 3 times on leaf 2 (11-31 DAA).
The treatment was part of an experimental trial designed as a randomized complete block with four replications and a plot of approximately 2×3 m. Treatments were applied at water volume of 150 L/ha, using a backpack precision plot sprayer ([sequence], 2 m band width, FLAT FAN FF015 nozzle). Disease severity (% visual infection) was assessed 3 times on leaf 1 (47-68 DAA) and 4 times on leaf 2 (36-68 DAA).
Disease severity (percentage of visual diseased foliage on whole plot or leaves) in all three field trials was recorded following EPPO PP1/26 guideline prescriptions. Area under the disease progress curve (AUDPC) was calculated for each plot in each of the three trials using the sets of recorded severity data. Relative AUDPC (% control based on AUDPC) was calculated as percent of the nontreated control.

[6] = 25 g ai/ha, with adjuvant Agnique BP-420
[7] = 50 g ai/ha, with adjuvant Agnique BP-420
[8] = 100 g ai/ha, with adjuvant Agnique BP-420
[9] = 150 g ai/ha, with adjuvant Agnique BP-420

Structure (SMILES): N#Cc1ccc(Oc2ccc(C(F)(F)C(O)(Cn3ncnc3S)c3ccc(F)cc3F)nc2)cc1 (stereo not shown) [Compound I, 4-((6-(2-(2,4-difluorophenyl)-1,1-difluoro-2-hydroxy-3-(5-mercapto-1H-1,2,4-triazol-1-yl)propyl)pyridin-3-yl)oxy)benzonitrile]
- Test A % Control (based on AUDPC) [1, 6]: A (76-100)
- Test A % Control (based on AUDPC) ([1]; 50 g ai/ha, no adjuvant): A (76-100)
- Test A % Control (based on AUDPC) [1, 7]: A (76-100)
- Test A % Control (based on AUDPC) ([1]; 100 g ai/ha, no adjuvant): A (76-100)
- Test A % Control (based on AUDPC) [1, 8]: A (76-100)
- Test A % Control (based on AUDPC) [1, 9]: A (76-100)
- Test B % Control (based on AUDPC) [1, 6]: B (51-75)
- Test B % Control (based on AUDPC) ([1]; 50 g ai/ha, no adjuvant): A (76-100)
- Test B % Control (based on AUDPC) [1, 7]: A (76-100)
- Test B % Control (based on AUDPC) ([1]; 100 g ai/ha, no adjuvant): A (76-100)
- Test B % Control (based on AUDPC) [1, 8]: A (76-100)
- Test B % Control (based on AUDPC) [1, 9]: A (76-100)
- 2 DC percent control based on AUDPC [2, 6]: C (26-50)
- 2 DC percent control based on AUDPC ([2]; 50 g ai/ha, no adjuvant): C (26-50)
- 2 DC percent control based on AUDPC [2, 7]: C (26-50)
- 2 DC percent control based on AUDPC [2, 8]: B (51-75)
- 2 DC percent control based on AUDPC [2, 9]: B (51-75)
- 3 DP percent control based on AUDPC [2, 6]: C (26-50)
- 3 DP percent control based on AUDPC ([2]; 50 g ai/ha, no adjuvant): C (26-50)
- 3 DP percent control based on AUDPC [2, 7]: C (26-50)
- 3 DP percent control based on AUDPC [2, 8]: B (51-75)
- 3 DP percent control based on AUDPC [2, 9]: B (51-75)
- Percent Control (calculated with FHB index using incidence and % infection) ([3]; sprayed on heads at flowering one day before inoculation, winter wheat): B (51-75)
- Yield ([3]; winter wheat crop harvest, untreated 6.0): 8.4 t/ha
- % Control (AUDPC over 3 trials) ([4]; 25 g ai/ha, EC formulation, Adjuvant X (Plurafac LF 1300 EC)): B (51-75)
- % Control (AUDPC over 3 trials) ([4]; 25 g ai/ha, SC formulation, Adjuvant Y (Agnique BP420 EW with Agnique FOH TDA-9)): B (51-75)
- % Control (AUDPC over 3 trials) ([4]; 50 g ai/ha, EC formulation, Adjuvant X (Plurafac LF 1300 EC)): B (51-75)
- % Control (AUDPC over 3 trials) ([4]; 50 g ai/ha, SC formulation, Adjuvant Y (Agnique BP420 EW with Agnique FOH TDA-9)): B (51-75)
- % Control (AUDPC over 3 trials) ([4]; 75 g ai/ha, EC formulation, Adjuvant X (Plurafac LF 1300 EC)): A (76-100)
- % Control (AUDPC over 3 trials) ([4]; 75 g ai/ha, SC formulation, Adjuvant Y (Agnique BP420 EW with Agnique FOH TDA-9)): B (51-75)
- % Control (AUDPC over 3 trials) ([4]; 100 g ai/ha, EC formulation, Adjuvant X (Plurafac LF 1300 EC)): A (76-100)
- % Control (AUDPC over 3 trials) ([4]; 100 g ai/ha, SC formulation, Adjuvant Y (Agnique BP420 EW with Agnique FOH TDA-9)): A (76-100)
- % Control (AUDPC over 3 trials) ([4]; 150 g ai/ha, EC formulation, Adjuvant X (Plurafac LF 1300 EC)): A (76-100)
- % Control (AUDPC over 3 trials) ([4]; 150 g ai/ha, SC formulation, Adjuvant Y (Agnique BP420 EW with Agnique FOH TDA-9)): A (76-100)
- Curative Trials (% Control), AUDPC average over three trials ([5]; 50 g ai/ha): B (51-75)
- Curative Trials (% Control), AUDPC average over three trials ([5]; 100 g ai/ha): B (51-75)
- Curative Trials (% Control), AUDPC average over three trials ([5]; 150 g ai/ha): B (51-75)
